Laboratory results: patent publication US9801850B2, “Antibacterial agent” (OSAKA UNIVERSITY, priority 2009, dated 2017)
Values after ≈ are worked out from the molar mass of the structure shown.

How the values were obtained:
[1] = system: Methicillin-susceptible Staphylococcus aureus (MSSA) NCTC8325; test: MIC, broth microdilution (Example 1); assay type: cell-based; settings: MH-broth, 37° C., 18 hours
[2] = system: Escherichia coli MG1655 ΔtolC; test: MIC, influence of multidrug efflux pump (Example 5); assay type: cell-based
Experimental: (§1) Using the EGCG derivatives, the minimum inhibitory concentration (MIC) was measured in the same manner as described in Section (2) of Example 2, except that Escherichia coli MG1655 (hereinafter referred to as a wild-type strain) and gene deletion strains of Escherichia coli MG1655 were used as the bacteria. The gene deletion strains were: strains obtained by deleting the efflux pump genes, namely, acrB, acrD, and acrEF, respectively, in Escherichia coli MG1655 (ΔacrD, ΔacrEF, and ΔacrB); and a strain obtained by deleting the outer membrane protein tolC gene that couples to proteins encoded by the efflux pump genes (ΔtolC).
(§2) As Comparative Example 5, the minimum inhibitory concentration (MIC) was measured in the same manner as in Example 5, except that EGCG was used instead of the EGCG derivative.

[3] = system: Escherichia coli MG1655 (wild type); test: as above; assay type: cell-based
Experimental: as §1, §2

[4] = system: Escherichia coli MG1655 ΔacrD; test: as above; assay type: cell-based
Experimental: as §1, §2

[5] = system: Escherichia coli MG1655 ΔacrEF; test: as above; assay type: cell-based
Experimental: as §1, §2

[6] = system: Escherichia coli MG1655 ΔacrB; test: as above; assay type: cell-based
Experimental: as §1, §2

[7] = system: MRSA ATCC43300; test: Checker-board method, combination with β-lactam agent (Example 6); assay type: cell-based, Staphylococcus aureus; design: key to minimum EGCG-C16 concentration inhibiting growth alone: *MIC: The minimum EGCG-C16 concentration when the growth of the bacteria was inhibited using EGCG-C16 alone under a β-lactam agent free condition
Experimental: (§3) EGCG-C16 was dissolved in 100% DMSO, and each of the above-described β-lactam agents was dissolved in sterile distilled water. Thereafter, they were diluted with sterile distilled water so as to achieve predetermined concentrations, and the respective agents at the respective concentrations were combined one another. The change in MIC of each β-lactam agent by the addition of EGCG-C16 was measured by the checker-board method. […] The minimum inhibitory concentration (MIC) of each of the above-described β-lactam agents when used in combination with EGCG-C16 was measured in the same manner as described in Section (2) of Example 2, except that the MRSA ATCC43300 and the MRSA clinical isolate No. 8 used in Example 2 were used as the bacteria.
(§4) As Comparative Example 6, the minimum inhibitory concentration (MIC) was measured in the same manner as in Example 6, except that EGCG was used instead of EGCG-C16.

[8] = system: MRSA clinical isolate No. 8; test: as above; assay type: cell-based, Staphylococcus aureus; design: key to minimum EGCG-C16 concentration inhibiting growth alone: *MIC: The minimum EGCG-C16 concentration when the growth of the bacteria was inhibited using EGCG-C16 alone under a β-lactam agent free condition
Experimental: as §3, §4

[9] = MRSA ATCC43300, concentration of EGCG-C16 or EGCG 0 μg/ml
[10] = MRSA ATCC43300, concentration of EGCG-C16 or EGCG 8 μg/ml
[11] = MRSA ATCC43300, concentration of EGCG-C16 or EGCG 16 μg/ml
[12] = MRSA ATCC43300, concentration of EGCG-C16 or EGCG 32 μg/ml
[13] = MRSA ATCC43300, concentration of EGCG-C16 or EGCG 64 μg/ml
[14] = MRSA ATCC43300, concentration of EGCG-C16 or EGCG 128 μg/ml
[15] = concentration of EGCG-C16 or EGCG 0 μg/ml
[16] = concentration of EGCG-C16 or EGCG 8 μg/ml
[17] = MRSA ATCC43300, concentration of EGCG-C16 or EGCG 2 μg/ml
[18] = MRSA ATCC43300, concentration of EGCG-C16 or EGCG 4 μg/ml

Row | Molecule | MIC [1] | MIC [2] | MIC [3] | MIC [4] | MIC [5] | MIC [6] | MIC of ABPC when used in combination with EGCG-C16 or EGCG [7, 9] | MIC of IPM when used in combination with EGCG-C16 or EGCG [7, 9] | MIC of ABPC when used in combination with EGCG-C16 or EGCG [7, 10] | MIC of IPM when used in combination with EGCG-C16 or EGCG [7, 10] | MIC of ABPC when used in combination with EGCG-C16 or EGCG [8, 15] | MIC of ABPC when used in combination with EGCG-C16 or EGCG [8, 16] | further results
1 | O=C(O[C@@H]1Cc2c(O)cc(O)cc2O[C@@H]1c1cc(O)c(O)c(O)c1)c1cc(O)c(O)c(O)c1 [EGCG, Epigallocatechin gallate, reference compound] | 128 µg/mL (≈ 279 µM) | 128 µg/mL (≈ 279 µM) | >256 µg/mL | >256 µg/mL | >256 µg/mL | 128 µg/mL (≈ 279 µM) | 32 µg/mL | 0.016 µg/mL | 8 µg/mL | 0.016 µg/mL | 64 µg/mL | 4 µg/mL | antagonistic action in combination with IPM ([7]; ATCC43300, IPM susceptible, EGCG at 16 to 64 μg/ml, EGCG derivative in the examined concentration range): weak antagonistic action; MIC of ABPC when used in combination with EGCG-C16 or EGCG [7, 11]: 4 µg/mL; MIC of IPM when used in combination with EGCG-C16 or EGCG [7, 11]: 0.031 µg/mL; MIC of ABPC when used in combination with EGCG-C16 or EGCG [7, 12]: 4 µg/mL; MIC of IPM when used in combination with EGCG-C16 or EGCG [7, 12]: 0.031 µg/mL; MIC of ABPC when used in combination with EGCG-C16 or EGCG [7, 13]: 2 µg/mL; MIC of IPM when used in combination with EGCG-C16 or EGCG [7, 13]: 0.031 µg/mL; MIC of ABPC when used in combination with EGCG-C16 or EGCG [7, 14]: 1 µg/mL; MIC of IPM when used in combination with EGCG-C16 or EGCG [7, 14]: 0.016 µg/mL; MIC of ABPC when used in combination with EGCG-C16 or EGCG ([8]; concentration of EGCG-C16 or EGCG 16 μg/ml): 8 µg/mL; MIC of ABPC when used in combination with EGCG-C16 or EGCG ([8]; concentration of EGCG-C16 or EGCG 32 μg/ml): 8 µg/mL; MIC of ABPC when used in combination with EGCG-C16 or EGCG ([8]; concentration of EGCG-C16 or EGCG 64 μg/ml): 4 µg/mL; MIC of ABPC when used in combination with EGCG-C16 or EGCG ([8]; concentration of EGCG-C16 or EGCG 128 μg/ml): 1 µg/mL
2 | EGCG-dioctanoate [EGCG-C8×2] |  | 32 µg/mL | >128 µg/mL | >128 µg/mL | >128 µg/mL | 64 µg/mL |  |  |  |  |  |  | 
3 | EGCG-palmitate [EGCG-C16] | 8 µg/mL | 64 µg/mL | >128 µg/mL | >128 µg/mL | >128 µg/mL | 64 µg/mL | 32 µg/mL | 0.016 µg/mL | 1 µg/mL | 0.004 µg/mL | 64 µg/mL | 2 µg/mL | MIC of ABPC when used in combination with EGCG-C16 or EGCG [7, 17]: 16 µg/mL; MIC of IPM when used in combination with EGCG-C16 or EGCG [7, 17]: 0.016 µg/mL; MIC of ABPC when used in combination with EGCG-C16 or EGCG [7, 18]: 8 µg/mL; MIC of IPM when used in combination with EGCG-C16 or EGCG [7, 18]: 0.016 µg/mL; minimum EGCG-C16 concentration inhibiting growth alone ([7]; MRSA ATCC43300, β-lactam agent free, mark stands in the column 16 μg/ml): *MIC; MIC of ABPC when used in combination with EGCG-C16 or EGCG ([8]; concentration of EGCG-C16 or EGCG 2 μg/ml): 32 µg/mL; MIC of ABPC when used in combination with EGCG-C16 or EGCG ([8]; concentration of EGCG-C16 or EGCG 4 μg/ml): 16 µg/mL; minimum EGCG-C16 concentration inhibiting growth alone ([8]; β-lactam agent free, mark stands in the column 16 μg/ml): *MIC
4 | EGCG-palmitoleate [EGCG-C16E] |  | 64 µg/mL | >128 µg/mL | >128 µg/mL | >128 µg/mL | 64 µg/mL |  |  |  |  |  |  | 
5 | EGCG-stearate [EGCG-C18] | 16 µg/mL |  |  |  |  |  |  |  |  |  |  |  | 
6 | EGCG-α-linoleate [EGCG-C18TE] |  | 64 µg/mL | >128 µg/mL | >128 µg/mL | >128 µg/mL | 64 µg/mL |  |  |  |  |  |  | 
